Data on 18 compounds can be found in patent US20210284647A1, “N-(3-(IMIDAZO[1,2-B]PYRIDAZIN-3-YLETHYNYL)-4-METHYLPHENYL)-5-PHENYL-4,5-DIHYDRO-1H-PYRAZOLE-1-CARBOXAMIDE DERIVATIVE, AND PHARMACEUTICAL COMPOSITION CONTAINING SAME AS ACTIVE INGREDIENT FOR TREATING KINASE-RELATED DISEASES” (VORONOIBIO INC., priority 2018, published 2021).

Where a name gives a salt, the structure may show the parent alone.

What is called IC50 is the concentration at which inhibition is half-maximal. As a reminder, the EC50 is the concentration giving half of the maximal effect.

One experiment addresses T1, human GST-RIPK1 (Homo sapiens, UniProt Q13546).
T1 construct: GST; purchased signalchem
T1 sequence (Q13546 1-375 limits assumed): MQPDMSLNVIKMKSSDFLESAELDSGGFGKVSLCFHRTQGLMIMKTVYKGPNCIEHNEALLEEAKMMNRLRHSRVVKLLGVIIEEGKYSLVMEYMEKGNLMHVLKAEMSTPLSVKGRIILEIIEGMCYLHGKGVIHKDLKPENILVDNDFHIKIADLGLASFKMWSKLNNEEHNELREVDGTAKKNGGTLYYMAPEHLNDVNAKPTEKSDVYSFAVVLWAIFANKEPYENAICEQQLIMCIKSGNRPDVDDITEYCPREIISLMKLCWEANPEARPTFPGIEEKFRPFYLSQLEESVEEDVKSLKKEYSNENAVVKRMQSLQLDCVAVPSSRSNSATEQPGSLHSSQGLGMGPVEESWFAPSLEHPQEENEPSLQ
The experiment can be described thus: RIPK1 inhibitory activity (ADP-Glo kinase assay). The format is biochemical. As to conditions: human GST-RIPK1 10 ng, ATP 50 uM, 25° C. for 4 hours, read-out: Enzyme IC50. In outline:
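Purified human GST-RIPK1 (10 ng) was reacted with 50 uM ATP and substrate in Tris-HCl pH 7.4, MgCl2, BSA, DTT buffer for 4 h at 25 °C. ADP formed was read by ADP-Glo luminescence. IC50 is relative to solvent control, from three data sets.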
(In general: In ADP-Glo the light output rises with the ADP produced.)

Experiment [1] relates to human Jurkat T cells deficient in FADD. The experiment is described as follows: Cell protection effect under apoptosis-inducing condition (TNF-α). The format is cell-based. As to conditions: 40 ng of TNF-α, 50 hours, CellTiter-Glo, read-out: I2.I Cell EC50. A digest of the protocol: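 FADD-deficient Jurkat cells (10,000/well) were cultured for 24 h, then exposed to TNF-α (40 ng) plus compound in a 3-fold series from 1 µM top (0.05% DMSO) for 50 h. Viability was read by CellTiter-Glo luminescence. EC50 is the concentration giving 50% inhibition of apoptosis relative to solvent control.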
(ATP-based viability assays read luminescence as a measure of living cells.)

As for `O=C(Nc1cncc(C#Cc2cnc3cccnn23)c1)N1N=CCC1c1ccccc1` (stereo not drawn) [Example 51, N-(5-(imidazo[1,2-b]pyridazin-3-ylethynyl)pyridin-3-yl)-5-phenyl-4,5-dihydro-1H-pyrazole-1-carboxamide 2,2,2--trifluoroacetate], the IC50 on human GST-RIPK1 amounted to 1.22 nM. Also, in experiment [1], the EC50 was 1.84 nM.

On to `O=C(Nc1cc(C#Cc2cnc3cccnn23)ccn1)N1N=CCC1c1ccccc1` (stereo not drawn) [Example 52, N-(4-(imidazo[1,2-b]pyridazin-3-ylethynyl)pyridin-2-yl)-5-phenyl-4,5-dihydro-1H-pyrazole-1-carboxamide 2,2,2-trifluoroacetate], for which the concentration for half-maximal inhibition (IC50) on human GST-RIPK1 worked out at 775 nM. Also, the EC50 in experiment [1] is > 1000 nM.

For `O=C(c1cccc(C#Cc2cnc3cccnn23)c1)N1N=CCC1c1ccccc1` (stereo not drawn) [Example 53, (3-(imidazo[1,2-b]pyridazin-3-ylethynyl)phenyl)(5-phenyl-4,5-dihydro-1H-pyrazol-1-yl)methanone 2,2,2-trifluoroacetate], the half-inhibitory concentration (IC50) at human GST-RIPK1 was 731 nM. The EC50 in experiment [1] was found to be 975 nM.

As to `Cc1ccc(C(=O)N2N=CCC2c2ccccc2)cc1C#Cc1cnc2cccnn12` (stereo not drawn) [Example 54, (3-(imidazo[1,2-b]pyridazin-3-ylethynyl)-4-methylphenyl)(5-phenyl-4,5-dihydro-1H-pyrazol-1-yl)methanone 2,2,2-trifluoroacetate], the half-inhibitory concentration (IC50) at human GST-RIPK1 worked out at 32.6 nM. Besides, the concentration giving a half-maximal response (EC50) in experiment [1] was > 1000 nM.

Take `O=C(Nc1cccc(C#Cc2cnc3ccccn23)c1)N1N=CCC1c1ccccc1` (stereo not drawn) [Example 55, N-(3-(imidazo[1,2-a]pyridin-3-ylethynyl)phenyl)-5-phenyl-4,5-dihydro-1H-pyrazole-1-carboxamide]: the IC50 on human GST-RIPK1 is 13.4 nM. In addition, the EC50 in experiment [1] was 1.6 nM.

As for `O=C(Nc1cccc(C#Cc2cnn3cccnc23)c1)N1N=CCC1c1ccccc1` (stereo not drawn) [Example 56, 5-phenyl-N-(3-(pyrazolo[1,5-a]pyrimidin-3-ylethynyl)phenyl)-4,5-dihydro-1H--pyrazole-1-carboxamide], the IC50 on human GST-RIPK1 was determined as 30.5 nM. Besides, the EC50 in experiment [1] came to 0.3 nM.

Regarding `O=C(Nc1cccc(C#Cc2cnc3cnccn23)c1)N1N=CCC1c1ccccc1` (stereo not drawn) [Example 57, N-(3-(imidazo[1,2-a]pyrazin-3-ylethynyl)phenyl)-5-phenyl-4,5-dihydro-1H-pyrazole-1-carboxamide], the half-maximal inhibitory concentration (IC50) on human GST-RIPK1 amounted to 23.8 nM. Further, the EC50 in experiment [1] was found to be 0.3 nM.

For the compound `O=C(Nc1cccc(C#Cc2cnc3ncccn23)c1)N1N=CCC1c1ccccc1` (stereo not drawn) [Example 58, N-(3-(imidazo[1,2-a]pyrimidin-3-ylethynyl)phenyl)-5-phenyl-4,5-dihydro-1H-pyrazole-1-carboxamide], the 50% inhibitory concentration (IC50) at human GST-RIPK1 stood at 15 nM. Besides, the EC50 in experiment [1] worked out at 3.6 nM.

On to `Nc1cccn2c(C#Cc3cccc(NC(=O)N4N=CCC4c4ccccc4)c3)cnc12` (stereo not drawn) [Example 59, N-(3-((8-aminoimidazo[1,2-a]pyridin-3-yl)ethynyl)phenyl)-5-phenyl-4,5-dihydro-1H-pyrazole-1-carboxamide hydrochloride], for which, at human GST-RIPK1, the half-inhibitory concentration (IC50) came out at 127 nM. For the same compound, the EC50 in experiment [1] came to 17.6 nM.

In the case of `CC(=O)Nc1cccn2c(C#Cc3cccc(NC(=O)N4N=CCC4c4ccccc4)c3)cnc12` (stereo not drawn) [Example 60, N-(3-((8-acetamidoimidazo[1,2-a]pyridin-3-yl)ethynyl)phenyl)-5-phenyl-4,5-dihydro-1H-pyrazole-1-carboxamide], the IC50 at human GST-RIPK1 amounted to 64.1 nM. Moreover, the concentration for a half-maximal effect (EC50) in experiment [1] was 0.4 nM.

As to `CNC(=O)Nc1cccn2c(C#Cc3cccc(NC(=O)N4N=CCC4c4ccccc4)c3)cnc12` (stereo not drawn) [Example 61, N-(3-((8-(3-methylureido)imidazo[1,2-a]pyridin-3-yl)ethynyl)phenyl)-5-phenyl-4,5-dihydro-1H-pyrazole-1-carboxamide 2,2,2-trifluoroacetate], the IC50 on human GST-RIPK1 is 96.7 nM. In experiment [1], the concentration for a half-maximal effect (EC50) came to 0.4 nM.

Regarding `O=C(Nc1cccn2c(C#Cc3cccc(NC(=O)N4N=CCC4c4ccccc4)c3)cnc12)C1CC1` (stereo not drawn) [Example 62, N-(3-((8-(cyclopropanecarboxamido)imidazo[1,2-a]pyridin-3-yl)ethynyl)phenyl)-5-phenyl-4,5-dihydro-1H-pyrazole-1-carboxamide 2,2,2-trifluoroacetate], on human GST-RIPK1, the IC50 turned out to be 179 nM. For the same compound, the EC50 in experiment [1] is 1.7 nM.

For the compound `O=C(Nc1cccn2c(C#Cc3cccc(NC(=O)N4N=CCC4c4ccccc4)c3)cnc12)C1CCC1` (stereo not drawn) [Example 63, N-(3-((8-(cyclobutanecarboxamido)imidazo[1,2-a]pyridin-3-yl)ethynyl)phenyl)-5-phenyl-4,5-dihydro-1H-pyrazole-1-carboxamide 2,2,2-trifluoroacetate], the half-inhibitory concentration (IC50) on human GST-RIPK1 came to 39.6 nM. For the same compound, the concentration giving a half-maximal response (EC50) in experiment [1] was found to be 0.9 nM.

Turning to `COC(=O)Nc1cccn2c(C#Cc3cccc(NC(=O)N4N=CCC4c4ccccc4)c3)cnc12` (stereo not drawn) [Example 64, methyl (3-((3-(5-phenyl-4,5-dihydro-1H-pyrazole-1-carboxamido)phenyl)ethynyl)imidazo[1,2-a]pyridin-8-yl)carbamate], the IC50 on human GST-RIPK1 amounted to 119 nM. Moreover, in experiment [1], the concentration giving a half-maximal response (EC50) is 1.1 nM.

On to `CS(=O)(=O)c1ccc(Nc2cccn3c(C#Cc4cccc(NC(=O)N5N=CCC5c5ccccc5)c4)cnc23)cc1` (stereo not drawn) [Example 65, N-(3-((8-((4-(methylsulfonyl)phenyl)amino)imidazo[1,2-a]pyridin-3-yl)ethynyl)phenyl)-5-phenyl-4,5-dihydro-1H-pyrazole-1-carboxamide 2,2,2-trifluoroacetate], for which, on human GST-RIPK1, the half-inhibitory concentration (IC50) was determined as 51.4 nM. The 50% effective concentration (EC50) in experiment [1] came out at 0.2 nM.

On to `Cc1cc(Nc2cccn3c(C#Cc4cccc(NC(=O)N5N=CCC5c5ccccc5)c4)cnc23)n[nH]1` (stereo not drawn) [Example 66, N-(3-((8-((5-methyl-1H-pyrazol-3-yl)amino)imidazo[1,2-a]pyridin-3-yl)ethynyl)phenyl)-5-phenyl-4,5-dihydro-1H-pyrazole-1-carboxamide 2,2,2-trifluoroacetate], for which, at human GST-RIPK1, the IC50 was 30.6 nM. Moreover, the EC50 in experiment [1] stood at 0.22 nM.

For `Cn1cc(Nc2cccn3c(C#Cc4cccc(NC(=O)N5N=CCC5c5ccccc5)c4)cnc23)cn1` (stereo not drawn) [Example 67, N-(3-((8-((1-methyl-1H-pyrazol-4-yl)amino)imidazo[1,2-a]pyridin-3-yl)ethynyl)phenyl)-5-phenyl-4,5-dihydro-1H-pyrazole-1-carboxamide 2,2,2-trifluoroacetate], the IC50 on human GST-RIPK1 was 19 nM. Further, the EC50 in experiment [1] turned out to be 0.08 nM.

Regarding `Cn1ccc(Nc2cccn3c(C#Cc4cccc(NC(=O)N5N=CCC5c5ccccc5)c4)cnc23)n1` (stereo not drawn) [Example 68, N-(3-((8-((1-methyl-1H-pyrazol-3-yl)amino)imidazo[1,2-a]pyridin-3-yl)ethynyl)phenyl)-5-phenyl-4,5-dihydro-1H-pyrazole-1-carboxamide 2,2,2-trifluoroacetate], the IC50 on human GST-RIPK1 was determined as 38.6 nM. Further, in experiment [1], the EC50 worked out at 0.12 nM.
